This passage reports TGI and GI50 results from PubChem BioAssay (NCI).

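Grown in 96-well plates, cells were treated for 48 hours with each compound at five concentrations. Insufficient inhibition: endpoint recorded as highest concentration tested. GI50 marks 50% less growth. TGI: concentration producing complete growth inhibition.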

In general, TGI refers to the concentration at which net growth stops. Read a low TGI as more potent growth arrest. As usually defined, the GI50 is the concentration giving 50% growth inhibition.

Assay in all cases: DTP human tumour cell line panel, 48 h
Assay [1] concerns SF-539 CNS.
Assay [2] has as its system TK-10 renal.
Assay [3] relates to HOP-62 NSCLC.
Assay [4] deals with OVCAR-5 ovarian.
In assay [5] the test system is NCI-H522 lung.
The test system of assay [6] is CCRF-CEM leukemia.
The subject of assay [7] is SK-MEL-5 melanoma.
Assay [8] concerns KM12 colon.
The test system of assay [9] is SNB-19 CNS.
The subject of assay [10] is MALME-3M melanoma.

As to `CC1CCCC(C(=O)/C(=C/c2cccc(Cl)c2)C(=O)C(=O)O)C1` (configuration not stated), the TGI was 64.9 µM in assay [1]; over 100 µM in assay [2]; over 100 µM in assay [3]; over 100 µM in assay [4]; 24.7 µM in assay [5]; 48.3 µM in assay [6]. Also, the TGI in assay [7] is over 100 µM; in assay [8], 30.6 µM; in [9], over 100 µM; in assay [10], over 100 µM.
On to `COc1ccc(C2C(C#N)=C(N)OC3=C2CCCc2ccc(F)cc23)cc1OC` (configuration not stated), for which the GI50 in [1] is 16.6 µM; in assay [2] it was 28.8 µM; in assay [3] it was 21.5 µM; in [4] it was 24.7 µM; in [5], 17.8 µM; in [7], 14.7 µM. In addition, the figures for the GI50 in assay [8], in assay [9] and in [10] were 19.1 µM, 30.2 µM and 18.5 µM, respectively. Moreover, the TGI in assay [1] turned out to be 32.2 µM; in assay [2] it was 56.3 µM; in assay [3], 42.3 µM; in [4], 65.2 µM; in assay [5], 37.6 µM; in [6], 0.0686 µM. The concentration for total growth inhibition (TGI) was 27.9 µM in [7], 43.6 µM in assay [8], over 82.4 µM in assay [9] and 40 µM in assay [10].
Turning to `COc1ccc(C(=O)C(C(=O)CCC(=O)Nc2cccc(C(F)(F)F)c2)c2ccccc2)cc1` (configuration not stated), the TGI in [1], in assay [2], in assay [3], in assay [4], in [5] and in assay [6] was over 100 µM throughout. The total growth inhibition concentration (TGI) in assay [7], in assay [8], in [9] and in [10] was over 100 µM in each case.
Turning to `CC(=O)c1c(C)n([O-])c2cc(C)c(C)cc2[n+]1=O`, the TGI in assay [1], in assay [2], in [3], in [4], in [5] and in assay [6] was over 100 µM in each case. The TGI in assay [7], in assay [8], in assay [9] and in [10] was over 100 µM each time.
For `CNc1nc(NC2CCCC2)nc(Sc2ccc(OC)cc2)n1`, the GI50 in assay [1], in assay [2], in assay [3], in assay [4], in assay [5] and in assay [6] was over 10 µM in each case. For the same compound, the GI50 in assay [7], in [8], in assay [9] and in [10] was over 10 µM throughout. Also, the TGI in assay [1], in [2], in assay [3], in assay [4], in assay [5] and in [6] was over 10 µM throughout. In addition, the TGI in assay [7], in assay [8], in [9] and in assay [10] was over 10 µM throughout.
On to `CCCSc1cc(Cl)nc(N)n1`, for which the GI50 in [1], in [2], in assay [3], in assay [4], in assay [5] and in assay [6] was over 100 µM each time. In addition, the GI50 in assay [7], in assay [8], in assay [9] and in [10] was over 100 µM throughout. Further, the TGI in assay [1], in assay [2], in assay [3], in assay [4], in assay [5] and in [6] was over 100 µM in each case. The TGI in [7], in assay [8], in assay [9] and in assay [10] was over 100 µM in each case.
Regarding `Oc1c2c(c(O)c3ccccc13)=N[C@@H](c1ccccc1)[C@H](c1ccccc1)N=2`, the TGI in [1], in assay [2], in assay [3], in assay [4], in [5] and in assay [6] was over 100 µM throughout. Also, the TGI in assay [7], in [8], in assay [9] and in [10] was over 100 µM each time.
Turning to `Nc1ccc(SC23CC4CC(CC(C4)C2)C3)cc1`, the TGI in [1], in assay [2], in assay [3], in assay [4], in assay [5] and in assay [6] was over 100 µM in each case. Moreover, the TGI in [7], in [8], in [9] and in [10] was over 100 µM each time.
For the compound `CC(=O)n1c(-c2ccc(Cl)cc2)nc2c(c1=O)C(c1ccc(Cl)cc1)c1sc3c(Cl)cccc3c1O2` (configuration not stated), the GI50 in assay [1] is 0.296 µM; in [2], 0.987 µM; in [3], 0.374 µM; in assay [4], 1.72 µM; in assay [5], 0.296 µM; in assay [6], 0.383 µM. The GI50 in assay [7] is 0.354 µM; in assay [8] it was 0.433 µM; in [9] it was 0.469 µM; in assay [10], 0.669 µM. The TGI in assay [1] was 1.12 µM; in assay [2], 2.62 µM; in assay [3], 1.76 µM; in assay [4] it was 4.31 µM; in assay [5], 1.63 µM; in assay [6] it was 4.12 µM. Besides, the total growth inhibition concentration (TGI) in assay [7] was determined as 1.32 µM; in [8], 1.78 µM; in assay [9], 1.98 µM; in assay [10], 2.5 µM.
`C=CC(=O)N1CCN(c2ncnc3c(F)c(-c4c(O)cccc4F)c(Cl)cc23)CC1`: the GI50 in assay [1] was 7.48 µM; in assay [2] it was 16.1 µM; in [3], 0.211 µM; in assay [4], 18.4 µM; in assay [5], 15.6 µM; in [6] it was 9.79 µM. For the same compound, the GI50 in assay [7] is 13.6 µM; in assay [8], 11.7 µM; in [9], 14 µM; in assay [10], 11.5 µM. Moreover, the TGI in assay [1] is 20.5 µM; in assay [2] it was 43.4 µM; in assay [3], 20.7 µM; in [4], 34.1 µM; in assay [5], 35.1 µM; in assay [6], over 100 µM. Moreover, the concentration for total growth inhibition (TGI) in assay [7] worked out at 26.5 µM; in assay [8], 28 µM; in [9], 27.3 µM; in assay [10], 24.8 µM.
Regarding `C[C@H]1CCC/C=C/[C@@H]2C[C@H](N)C[C@H]2[C@H](O)/C=C/C(=O)O1`, the GI50 in assay [1] is over 100 µM; in assay [2], over 100 µM; in assay [3], over 100 µM; in [4], over 100 µM; in assay [5], over 100 µM; in assay [6], 83.2 µM. Besides, the GI50 was 77.1 µM in [7], 71.4 µM in [8], over 100 µM in [9] and 52.8 µM in [10]. Also, the TGI in assay [1], in assay [2], in assay [3], in [4], in [5] and in [6] was over 100 µM each time. For the same compound, the TGI in [7], in assay [8], in [9] and in [10] was over 100 µM in each case.
Consider `O=c1c2ccccc2c2c3c1cccc3c1cccc3c(=O)c4ccccc4c2c31`, for which the TGI in assay [1], in [2], in assay [3], in assay [4], in [5] and in [6] was over 100 µM in each case. Moreover, the TGI in [7], in [8], in assay [9] and in assay [10] was over 100 µM in each case.
Turning to `C=CC(=O)Nc1cccc(Nc2nc(Nc3ccc(OCCOC)cc3)ncc2F)c1`, the GI50 in assay [1] is 1.47 µM; in assay [2], 0.99 µM; in assay [3], 2.42 µM; in [4] it was 1.89 µM; in assay [5], 1.78 µM; in assay [6] it was 4.06 µM. Further, the GI50 was 6.18 µM in assay [7], 3.43 µM in assay [8], 3.91 µM in [9] and 3.08 µM in assay [10]. The total growth inhibition concentration (TGI) is 4.95 µM in [1]; 3.86 µM in [2]; 20.7 µM in assay [3]; 21 µM in [4]; 8.14 µM in assay [5]; over 63.1 µM in assay [6]. The TGI is 20.2 µM in [7], 15.6 µM in assay [8], 37.4 µM in [9] and 20.9 µM in assay [10].
As to `CC1=Nc2c(ccc3c2C(=O)c2ccccc2C3=O)NC(c2ccncc2)C1` (configuration not stated), the GI50 in assay [1], in [9] and in assay [10] was over 100 µM throughout. For the same compound, the TGI in assay [1], in assay [2], in assay [3], in assay [4], in assay [5] and in assay [6] was over 100 µM throughout. Also, the TGI in [7], in assay [8], in [9] and in [10] was over 100 µM in each case.
`COc1ccc2c(-c3cc4ccccc4o3)cc(=O)oc2c1`: the TGI is 49.6 µM in [1]; 50.8 µM in assay [2]; 46.7 µM in assay [3]; over 100 µM in [4]; over 91.8 µM in assay [5]; over 100 µM in assay [6]. In addition, the total growth inhibition concentration (TGI) in [7], in assay [8], in assay [9] and in assay [10] was over 100 µM in each case.
As to `CNC(=O)c1ccc(-c2cnc3ncc(Cc4ccc5ncccc5c4)n3n2)cc1F`, the GI50 in [1] is 54.1 µM; in assay [2] it was over 100 µM; in assay [3] it was 94.3 µM; in assay [4] it was over 100 µM; in assay [5], 38 µM; in assay [6] it was over 100 µM. The GI50 in assay [7] was over 100 µM; in assay [8], over 100 µM; in assay [9], over 100 µM; in assay [10], 62.7 µM. For the same compound, the TGI in [1], in assay [2], in assay [3], in assay [4], in [5] and in assay [6] was over 100 µM throughout. Also, the TGI in assay [7], in assay [8], in [9] and in assay [10] was over 100 µM in each case.
Take `CN(C)CCNC(=O)Nc1c(C#N)[n+]([O-])c2cc(Cl)c(Cl)cc2[n+]1[O-]`: the GI50 in [1] was 18.9 µM; in assay [2] it was 53.7 µM; in assay [3], 34.2 µM; in [4], 87.1 µM; in assay [5], 13.1 µM; in assay [6], 6.88 µM. In addition, the GI50 is 14.3 µM in assay [7], 13.3 µM in assay [8], 27.8 µM in assay [9] and 21.6 µM in assay [10]. For the same compound, the TGI in assay [1] was 47.3 µM; in assay [2], over 100 µM; in assay [3] it was over 100 µM; in assay [4], over 100 µM; in assay [5], 35.3 µM; in assay [6] it was over 100 µM. Moreover, the TGI is 38.1 µM in assay [7], 43.1 µM in [8], over 100 µM in assay [9] and over 100 µM in [10].
Regarding `CCCCCC(=O)Oc1ccc(/C(=C(\C)c2ccc(OC)cc2)c2ccc(OCCN3CCCCC3)cc2)cc1`, the GI50 in assay [1] was 3.56 µM; in [2], 17.5 µM; in [3], 5.73 µM; in assay [4] it was 12.7 µM; in assay [5] it was 14.4 µM; in assay [6] it was 4.2 µM. The GI50 in assay [7] is 1.8 µM; in assay [8] it was 8.83 µM; in [9], 11.4 µM; in assay [10] it was 2.84 µM. The concentration for total growth inhibition (TGI) in assay [1] was determined as 14 µM; in assay [2] it was 31.8 µM; in assay [3], 19.8 µM; in assay [4] it was 27 µM; in assay [5], 30.5 µM; in assay [6], 31.8 µM. The TGI in assay [7] worked out at 3.57 µM; in assay [8], 27 µM; in assay [9], 24.8 µM; in assay [10], 10.4 µM.
